Key:
Format in all cases: binding
[1] = biological target: T1, kinases (KINOMEscan panel) (Homo sapiens, UniProt Q8TF76); conditions: HASPIN; NEW KINOMEscan
T1 sequence (Q8TF76 1-798): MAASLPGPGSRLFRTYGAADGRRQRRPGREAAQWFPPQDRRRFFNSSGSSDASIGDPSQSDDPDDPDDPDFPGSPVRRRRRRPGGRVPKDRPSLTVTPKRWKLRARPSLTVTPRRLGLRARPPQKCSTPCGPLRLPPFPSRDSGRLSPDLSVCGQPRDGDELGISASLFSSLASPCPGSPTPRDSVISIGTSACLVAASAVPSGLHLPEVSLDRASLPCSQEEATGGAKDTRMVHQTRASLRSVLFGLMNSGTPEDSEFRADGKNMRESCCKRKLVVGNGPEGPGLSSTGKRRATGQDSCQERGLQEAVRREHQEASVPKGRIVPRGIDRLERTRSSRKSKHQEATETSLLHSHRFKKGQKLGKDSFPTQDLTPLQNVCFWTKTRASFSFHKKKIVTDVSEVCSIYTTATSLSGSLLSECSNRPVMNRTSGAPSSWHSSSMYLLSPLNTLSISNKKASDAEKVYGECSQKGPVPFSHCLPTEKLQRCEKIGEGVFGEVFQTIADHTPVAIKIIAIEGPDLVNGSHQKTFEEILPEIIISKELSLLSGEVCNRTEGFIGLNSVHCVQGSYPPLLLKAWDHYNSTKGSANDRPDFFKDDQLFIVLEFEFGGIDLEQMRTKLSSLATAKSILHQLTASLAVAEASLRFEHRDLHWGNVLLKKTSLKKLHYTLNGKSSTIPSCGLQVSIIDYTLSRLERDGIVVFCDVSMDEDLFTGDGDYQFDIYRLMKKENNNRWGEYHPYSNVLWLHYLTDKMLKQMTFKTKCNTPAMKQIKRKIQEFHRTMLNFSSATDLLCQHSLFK

[2] = biological target: T2, kinases (KINOMEscan panel) (Homo sapiens, UniProt O15075); conditions: NEW KINOMEscan
T2 sequence (O15075 1-740): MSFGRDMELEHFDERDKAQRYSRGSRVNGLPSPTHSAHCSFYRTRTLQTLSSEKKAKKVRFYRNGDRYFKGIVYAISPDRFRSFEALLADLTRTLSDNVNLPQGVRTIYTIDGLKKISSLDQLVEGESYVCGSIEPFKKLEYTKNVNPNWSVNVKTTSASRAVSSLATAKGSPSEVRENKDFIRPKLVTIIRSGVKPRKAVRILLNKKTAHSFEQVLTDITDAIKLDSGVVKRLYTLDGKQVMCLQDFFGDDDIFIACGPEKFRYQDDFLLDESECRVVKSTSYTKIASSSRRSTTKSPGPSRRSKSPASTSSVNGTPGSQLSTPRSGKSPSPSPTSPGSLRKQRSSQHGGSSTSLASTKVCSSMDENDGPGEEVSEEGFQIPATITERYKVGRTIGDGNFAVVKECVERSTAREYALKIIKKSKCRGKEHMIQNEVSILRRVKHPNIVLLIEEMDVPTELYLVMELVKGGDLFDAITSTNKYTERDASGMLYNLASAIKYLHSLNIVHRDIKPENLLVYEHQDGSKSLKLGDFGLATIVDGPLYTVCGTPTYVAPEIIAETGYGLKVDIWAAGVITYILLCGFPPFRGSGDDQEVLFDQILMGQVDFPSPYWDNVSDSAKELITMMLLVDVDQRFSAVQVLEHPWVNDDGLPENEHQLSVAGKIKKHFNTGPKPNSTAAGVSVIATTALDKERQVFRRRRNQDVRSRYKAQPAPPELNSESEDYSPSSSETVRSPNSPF

[3] = biological target: kinases (KINOMEscan panel) (Homo sapiens, UniProt Q86Y07); conditions: NEW KINOMEscan
Sequence of kinases (KINOMEscan panel) (Homo sapiens, UniProt Q86Y07) (Q86Y07 whole entry): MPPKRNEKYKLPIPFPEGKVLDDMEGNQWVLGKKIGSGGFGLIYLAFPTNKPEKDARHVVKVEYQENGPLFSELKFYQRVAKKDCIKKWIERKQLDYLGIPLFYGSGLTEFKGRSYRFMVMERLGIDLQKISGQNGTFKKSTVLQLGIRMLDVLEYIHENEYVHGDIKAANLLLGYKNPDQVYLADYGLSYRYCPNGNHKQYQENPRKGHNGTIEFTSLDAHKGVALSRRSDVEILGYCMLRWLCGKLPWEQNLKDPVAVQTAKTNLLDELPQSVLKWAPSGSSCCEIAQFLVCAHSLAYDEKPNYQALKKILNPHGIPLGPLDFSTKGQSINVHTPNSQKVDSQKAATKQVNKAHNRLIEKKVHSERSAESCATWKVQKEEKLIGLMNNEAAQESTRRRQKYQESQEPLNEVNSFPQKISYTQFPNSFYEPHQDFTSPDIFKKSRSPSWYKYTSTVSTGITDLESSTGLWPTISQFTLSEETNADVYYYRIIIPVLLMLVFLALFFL

[4] = biological target: kinases (KINOMEscan panel) (Homo sapiens, UniProt P51617); conditions: kinase IRAK1; NEW KINOMEscan
Sequence of kinases (KINOMEscan panel) (Homo sapiens, UniProt P51617) (P51617 whole entry): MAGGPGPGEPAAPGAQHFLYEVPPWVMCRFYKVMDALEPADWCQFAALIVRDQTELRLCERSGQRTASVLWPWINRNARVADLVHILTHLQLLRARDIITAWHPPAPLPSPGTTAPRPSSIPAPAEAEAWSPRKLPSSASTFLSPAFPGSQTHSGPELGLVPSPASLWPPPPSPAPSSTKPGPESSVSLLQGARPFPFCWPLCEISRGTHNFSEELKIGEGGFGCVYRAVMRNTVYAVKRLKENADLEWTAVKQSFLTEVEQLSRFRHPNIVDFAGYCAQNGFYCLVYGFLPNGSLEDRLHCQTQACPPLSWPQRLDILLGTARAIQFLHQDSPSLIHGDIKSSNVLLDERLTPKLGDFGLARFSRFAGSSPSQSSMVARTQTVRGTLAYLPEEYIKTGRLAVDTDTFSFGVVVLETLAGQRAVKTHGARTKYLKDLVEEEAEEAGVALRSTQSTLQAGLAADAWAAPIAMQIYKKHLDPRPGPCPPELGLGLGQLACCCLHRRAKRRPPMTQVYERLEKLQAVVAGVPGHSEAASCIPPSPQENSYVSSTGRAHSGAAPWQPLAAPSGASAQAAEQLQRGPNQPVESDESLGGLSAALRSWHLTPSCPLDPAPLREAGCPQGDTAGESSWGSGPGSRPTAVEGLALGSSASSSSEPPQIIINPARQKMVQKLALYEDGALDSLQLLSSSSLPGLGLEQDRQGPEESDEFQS

[5] = biological target: T3, kinases (KINOMEscan panel) (Homo sapiens, UniProt P54753); conditions: kinase EPHB3; NEW KINOMEscan
T3 sequence (P54753 34-998): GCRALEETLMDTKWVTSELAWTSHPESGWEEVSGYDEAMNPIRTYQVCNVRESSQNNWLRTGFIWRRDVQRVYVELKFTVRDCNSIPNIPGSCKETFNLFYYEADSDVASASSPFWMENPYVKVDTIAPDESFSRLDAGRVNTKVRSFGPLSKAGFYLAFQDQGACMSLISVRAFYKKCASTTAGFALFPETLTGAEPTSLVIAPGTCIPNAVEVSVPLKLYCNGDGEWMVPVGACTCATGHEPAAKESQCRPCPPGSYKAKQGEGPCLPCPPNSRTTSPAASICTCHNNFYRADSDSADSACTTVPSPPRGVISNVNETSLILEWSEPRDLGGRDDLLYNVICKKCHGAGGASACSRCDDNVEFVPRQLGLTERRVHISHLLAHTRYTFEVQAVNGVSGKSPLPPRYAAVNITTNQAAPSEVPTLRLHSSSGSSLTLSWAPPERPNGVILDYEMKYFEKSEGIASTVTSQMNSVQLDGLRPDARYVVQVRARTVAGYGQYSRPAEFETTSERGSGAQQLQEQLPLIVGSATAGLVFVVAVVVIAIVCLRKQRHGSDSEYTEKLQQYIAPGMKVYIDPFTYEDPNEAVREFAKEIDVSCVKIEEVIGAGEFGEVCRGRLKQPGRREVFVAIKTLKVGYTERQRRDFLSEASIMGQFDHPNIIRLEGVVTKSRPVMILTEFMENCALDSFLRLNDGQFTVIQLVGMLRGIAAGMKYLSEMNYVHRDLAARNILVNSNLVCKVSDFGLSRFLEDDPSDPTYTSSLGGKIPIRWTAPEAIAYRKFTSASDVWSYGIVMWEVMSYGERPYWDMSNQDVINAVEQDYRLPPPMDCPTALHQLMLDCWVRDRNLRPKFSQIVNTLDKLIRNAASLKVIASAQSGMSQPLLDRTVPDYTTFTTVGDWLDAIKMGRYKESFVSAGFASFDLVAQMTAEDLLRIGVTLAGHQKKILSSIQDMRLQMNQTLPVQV

[6] = biological target: kinases (KINOMEscan panel) (Homo sapiens, UniProt Q9BUB5); conditions: NEW KINOMEscan
Sequence of kinases (KINOMEscan panel) (Homo sapiens, UniProt Q9BUB5) (Q9BUB5 whole entry): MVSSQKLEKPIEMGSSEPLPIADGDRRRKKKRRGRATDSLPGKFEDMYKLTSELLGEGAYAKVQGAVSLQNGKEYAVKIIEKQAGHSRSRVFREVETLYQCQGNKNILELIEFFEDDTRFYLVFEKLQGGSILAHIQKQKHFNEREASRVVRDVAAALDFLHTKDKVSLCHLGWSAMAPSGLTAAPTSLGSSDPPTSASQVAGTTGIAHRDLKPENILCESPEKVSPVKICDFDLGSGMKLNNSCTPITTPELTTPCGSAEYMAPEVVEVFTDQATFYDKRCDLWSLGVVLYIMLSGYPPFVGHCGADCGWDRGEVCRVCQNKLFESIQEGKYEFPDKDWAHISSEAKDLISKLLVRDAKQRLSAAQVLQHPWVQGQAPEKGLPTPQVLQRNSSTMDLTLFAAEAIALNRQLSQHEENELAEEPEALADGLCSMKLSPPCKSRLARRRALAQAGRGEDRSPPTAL

[7] = biological target: kinases (KINOMEscan panel) (Homo sapiens, UniProt P48729); conditions: CSNK1A1; NEW KINOMEscan
Sequence of kinases (KINOMEscan panel) (Homo sapiens, UniProt P48729) (P48729 whole entry): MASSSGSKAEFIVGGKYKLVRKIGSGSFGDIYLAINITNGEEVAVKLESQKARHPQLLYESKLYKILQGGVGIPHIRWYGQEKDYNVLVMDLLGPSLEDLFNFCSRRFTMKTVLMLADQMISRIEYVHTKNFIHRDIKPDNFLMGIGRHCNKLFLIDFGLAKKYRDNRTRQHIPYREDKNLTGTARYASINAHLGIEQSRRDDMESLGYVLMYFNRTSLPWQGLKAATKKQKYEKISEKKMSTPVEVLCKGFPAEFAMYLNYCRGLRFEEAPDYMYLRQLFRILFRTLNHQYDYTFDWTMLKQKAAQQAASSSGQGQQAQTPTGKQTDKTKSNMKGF

Row | Structure (SMILES) | KINOMEscan HASPIN [1] | KINOMEscan DCLK1 [2] | KINOMEscan VRK2 [3] | KINOMEscan IRAK1 [4] | KINOMEscan EPHB3 [5] | KINOMEscan MKNK1 [6] | KINOMEscan CSNK1A1 [7]
1 | Cc1cccc(-c2nc(Nc3ccc4nn(C)cc4c3)c3ccccc3n2)n1 [NK167] | 4 | 49 | 11 | 0 | 6 | 0 | 7
2 | Cc1cccc(-c2nc(N(C)c3ccc4ncsc4c3)c3ccccc3n2)n1 [NK-161] | 7 | 36 | 25 | 0 | 6 | 7 | 10
